Assay results as given in patent US20180344725A1, “QUINOLONE CHALCONE COMPOUNDS AND USES THEREOF” (priority 2015, published 2018).

Legend:
[1] = system: RPMI-8226BTZR; assay: Killing of bortezomib-resistant multiple myeloma cells; type: cell-based
From the text: The RPMI-8226BTZR over-expresses β1, β2 and β5 peptides of the 20S subunit. […] However, RPMI-8226BTZR is sensitive to CTR-20, CTR-21 and CTR-32 (FIG. 36).

[2] = system: H69AR; assay: SRB-based cytotoxicity assay; type: cell-based, human; details: for Resistance (fold): H69AR versus SW-1271; for IC50: Homo sapiens, H69AR, multidrug-resistant
Method: (§1) 1845B5 and MCF-10A non-cancer breast cell lines were cultured in DME/F12 medium supplemented with 10% fetal bovine serum, antibiotics and growth factors. […] The human small cell lung carcinoma H69 cell line and its multidrug-resistant MRP1-overexpressing isogenic H69AR cell line were purchased from ATCC. […] H69 cells grow as large multi-cell aggregates, making it difficult to accurately count cell numbers. […] The IL-6 dependent bortezomib-resistant ANBL6-BR cell line was further supplemented with 1 ng/ml of IL-6. The MCF10AT1 and MCF10CA1a cell lines are isogenic to the MCF10A cell line, and obtained from Dr. Valerie Weaver at the Center for Bioengineering and Tissue Regeneration, UCSF, CA, USA. […] The drug-resistant cells were cultured in the absence of drug for at least one passage before carrying out experiments. All cells were maintained in a humidified incubator at 37° C. […] Cell line authentication was performed using short tandem repeat (STR) profiling. […] Some wells were treated with 100 μl of 10% trichloroacetic acid (TCA) as a negative control and sham (medium with dimethyl sulfoxide; DMSO) treated cells were used as a positive control. […] TCA was removed and cells were washed with cold tap water, and plate was air-dried, followed by addition of 50 μl of 0.4% SRB staining solution to each well. After 30 minutes incubation, SRB staining solution was removed. Cells were washed with 1% acetic acid solution, and then washed with tap water to remove unbound staining solution, followed by air-drying. 200 μl of 10 mM (pH10.5) trizma base buffer was added to each well to solubilise macromolecules. […] Cell growth (inhibition) was calculated by the following formula: % cells proliferation=[(AT-CT)/(ST-CT)]×100 wherein AT=absorbance of treated cells, CT=absorbance of negative control cells, and ST=absorbance of sham treated cells. […] CI values were determined from four independent experiments.

[3] = system: MDA-MB-231 human metastatic breast cancer cells; assay: Anti-tumor activity in xenograft mice; type: in vivo; details: Tax 10 mg/kg I.V. once/week, CTR 30 mg/kg I.P. every 3 days, or Tax 5 + CTR 15 mg/kg once/week
Method: Five-week old female CD-1 and ATH490 (strain code 490) athymic nude mice were purchased from Charles River (Quebec, Canada). The MDA-MB-231 human metastatic breast cancer cells were obtained from the American Tissue Culture Collection (ATCC, Manassas, Va., USA). Cells were maintained under humidified conditions at 37° C. and 5% CO2 in DMEM high glucose medium (ATCC) supplemented with 10% fetal bovine serum and antibiotics.
For paclitaxel treatments, 40 mg/ml stock solution of paclitaxel (Sigma, MO) was prepared in DMSO. Just before administration to mice, the paclitaxel stock solution was diluted ten-fold in a buffer containing 10% DMSO, 12.5% Cremophor, 12.5% ethanol, and 65% saline-based diluent (0.9% sodium chloride, 5% polyethylene glycol, and 0.5% tween-80) which is defined as vehicle (Huang et al., 2006). Alanine transaminase (ALT, SUP6001-c)/Aspartate transaminase (AST, SUP6002-c) color endpoint assay kits were purchased from ID Labs Biotechnology (London, Ontario, Canada). Elevation of ALT and AST levels in serum samples was used as an indicator of liver damage/injury.
To determine the anti-tumor activity of CTR compounds in animals, a xenograft model of human breast cancer cells in athymic nude mice was established. Exponentially growing MDA-MB-231 metastatic breast cancer cells were harvested and counted for inoculation into mice. Each mouse was subcutaneously injected at the flank with 10×10^6 cells in 0.2 ml ice cold 1×PBS. When tumor size reached 4-5 mm in diameter (n=4-5 per group), mice were randomly assigned into several groups as described herein.
Animals were monitored for food and water consumption every day, and their body weights and tumor volumes were measured twice per week. Tumor volumes were measured with a digital caliper and were determined by using the following formula: ½ length×width^2. Blood samples were collected via cardiac puncture and processed further for ALT and AST measurements. The animals were then immediately euthanized by carbon dioxide. Tumors and vital organs (spleen, kidney, liver and lung) were collected and fixed in 10% buffered formalin at 4° C. overnight before being processed for paraffin embedding. The paraffin-embedded blocks were then cut into 4-5 μm thick sections. Each section of tumors and organs was stained with hematoxylin and eosin (H&E).

[4] = system: KB-C-2; assay: SRB-based cytotoxicity assay, single and combination with paclitaxel; type: cell-based, human; details: for IC50: Homo sapiens, KB-C2, KB-C-2, multidrug-resistant; for Resistance (fold): KB-C-2 versus KB-C-1
Method: as §1

[5] = single agent at 0.5IC50 (CTR-17 0.325 μM; CTR-20 0.125 μM; paclitaxel 11.5 nM)
[6] = single agent at IC50 (CTR-17 0.65 μM; CTR-20 0.25 μM; paclitaxel 23 nM)

SMILES | sensitivity of RPMI-8226BTZR [1] | Resistance (fold) [2] [fold] | IC50 [2] [nM] | tumor size (volume) ([3]; Day 0) [mm^3] | tumor size (volume) ([3]; Day 6) [mm^3] | tumor size (volume) ([3]; Day 14) [mm^3] | tumor size (volume) ([3]; Day 17) [mm^3] | tumor size (volume) ([3]; Day 20) [mm^3] | tumor size (volume) ([3]; Day 24) [mm^3] | tumor size (volume) ([3]; Day 27) [mm^3] | tumor size (volume) ([3]; Day 30) [mm^3] | IC50 [4] [nM] | Resistance (fold) [4] [fold] | Cell survival rates [4, 5] | Cell survival rates [4, 6] | Cell survival rates ([4]; single agent at 0.125IC50 (paclitaxel 2.875 nM)) | Cell survival rates ([4]; single agent at 0.25IC50 (paclitaxel 5.75 nM))
COc1ccccc1C(=O)/C=C/c1cc2cccc(OC)c2[nH]c1=O [CTR-21, (E)-8-methoxy-3-(3-(2-methoxyphenyl)-3-oxoprop-1-enyl) quinolin-2(1H)-one] | sensitive |  |  |  |  |  |  |  |  |  |  |  |  |  |  |  | 
CCOc1ccccc1C(=O)/C=C/c1cc2ccccc2[nH]c1=O [CTR-32, (E)-3-(3-(2-ethoxyphenyl)-3-oxoprop-1-enyl)quinolin-2(1H)-one] | sensitive |  |  |  |  |  |  |  |  |  |  |  |  |  |  |  | 
COc1ccccc1C(=O)/C=C/c1cc2ccccc2[nH]c1=O [CTR-17, (E)-3-(3-(2-Methoxyphenyl)-3-oxoprop-1-enyl)quinolin-2(1H)-one] |  | 0.45 | 520 ± 100 | 86.71 | 63.99 | 90.07 | 128.36 | 134.76 | 160.86 | 189.45 | 209.84 | 650 ± 160 | 1.71 | 80.0 ± 11.4 | 53.2 ± 12.6 |  | 
COc1ccc2[nH]c(=O)c(/C=C/C(=O)c3ccccc3OC)cc2c1 [CTR-20, (E)-6-Methoxy-3-(3-(2-methoxyphenyl)-3-oxoprop-1-enyl) quinolin-2(1H)-one] | sensitive | 0.13 | 130 ± 10 | 92.51 | 69.89 | 84.64 | 97.11 | 97.22 | 106.26 | 124.88 | 140.63 | 250 ± 30 | 2.50 | 76.0 ± 9.6 | 56.8 ± 8.4 |  | 
CC(=O)O[C@H]1C(=O)[C@@]2(C)[C@H]([C@H](OC(=O)c3ccccc3)[C@]3(O)C[C@H](OC(=O)[C@H](O)[C@@H](NC(=O)c4ccccc4)c4ccccc4)C(C)=C1C3(C)C)[C@]1(OC(C)=O)CO[C@@H]1C[C@@H]2O [Paclitaxel, reference compound] |  | 2.44 |  | 91.84 | 90.11 | 94.66 | 92.33 | 81.66 | 95.61 | 139.41 | 170.36 |  | 11.48 | 75.9 ± 7.7 | 48.4 ± 5.8 | 99.6 ± 0.3 | 89.5 ± 6.0
